Entries after “also recorded” stand apart in the source; their conditions may differ.
Tests used:
[1] = tested on: cocaine induced reinstatement of CPP; assay: Cocaine induced reinstatement of CPP (mouse model of CPP); assay type: in vivo; settings: conditioned with 10 mg/kg cocaine, reinstated with 5 mg/kg cocaine, l-THP 3 mg/kg, naltrexone 0.1 mg/kg, alone or combined
Protocol: Animals were conditioned using 10 mg/kg cocaine for 4 days, and reinstated using 5 mg/kg cocaine. Reinstatement was carried out 48 hours after CPP was extinct. The CPP score is calculated as a change in baseline from the cocaine conditioned chamber. A two way ANOVA followed by Bonferroni post test comparisons was used for analysis of the effect of treatment on cocaine reinstatement.
Fixed dose l-THP/LDN (3 mg/kg/0.1 mg/kg) were tested in mouse model of CPP.

[2] = PK of the drug-drug interaction between l-THP and cocaine in cocaine users; assay type: in vivo, human; settings: cocaine users
Description: (§1) Data on safety of l-THP in six subjects of cocaine users was generated (Table 1). The major PD/PK parameters of the drug-drug interaction between l-THP and cocaine in cocaine users were compared between active drug and placebo groups. […] Since l-THP will be 10 fold more than LDN in the combination, the safety of l-THP is the major safety concern in the combination for human drug addicts.

cocaine users = assay: Safety of l-THP in cocaine users: PD (blood pressure, heart rate); assay type: in vivo, human; settings: for BP (Change from baseline %), first value of the pair / BP (Change from baseline %), second value of the pair / HR (Change from baseline %): n = 3
Description: as §1

locomotor activity = assay: Treatment effect on locomotor activity during extinction/treatment; assay type: in vivo, mouse; settings: over the treatment period; l-THP 3 mg/kg, naltrexone 0.1 mg/kg, alone or combined
Protocol: Over the course of extinction/treatment the animal's locomotor activity was recorded. The locomotion scores graphed represent the treatment locomotion with the baseline locomotion score subtracted.

cocaine addicted mice = assay: Naltrexone induced withdrawal (global withdrawal score); assay type: in vivo; settings: mice treated with 10 mg/kg cocaine over 4 days
Protocol: Animals were treated with 10 mg/kg cocaine over 4 days. On the 5th day animals were injected with different dose of Naltrexone and 3 mg/kg l-THP. After injection animals were monitored for withdrawal behaviors for 20 minutes. Total counts for jumping, teeth chattering, paw tremors and grooming with assigned points were used to calculate the global withdrawal score. A one way ANVOA followed by Bonferroni post test comparisons was used to determine the effect naltrexone dose on withdrawal (***p<0.001 and *p<0.05 respectively) n=5 for each group. Global Scores were calculated.
This effect was attributed to cocaine's up regulation of endogenous opioids and the significant blockade of opioid receptor by naltrexone.

[3] = cocaine users, first column group headed Post cocaine 0 min
[4] = cocaine users, second column group headed Post cocaine 0 min

| Structure (SMILES) | effect of treatment on cocaine reinstatement of CPP [1] | effect of l-THP pretreatment on the Cmax or AUC0-inf of cocaine ([2]; vs placebo pretreated) | AUC(0-inf) ([2]; human, in vivo, n = 2, mean only, analyte l-THP, read-out: I-THP AUC 0-inf) [ng·h/mL] | Cmax ([2]; human, in vivo, n = 2, mean only, analyte l-THP, read-out: I-THP Cmax) [ng/mL] | peak changes in heart rate (HR) and blood pressure (BP) (cocaine users; cocaine users) | BP (Change from baseline %), first value of the pair (cocaine users; [3]) [%] | BP (Change from baseline %), second value of the pair (cocaine users; [3]) [%] | HR (Change from baseline %) (cocaine users; [3]) [%] | BP (Change from baseline %), first value of the pair (cocaine users; [4]) [%] | BP (Change from baseline %), second value of the pair (cocaine users; [4]) [%] | HR (Change from baseline %) (cocaine users; [4]) [%] | safety and tolerability in cocaine users (cocaine users; six subjects of cocaine users, active drug vs placebo) | effect on locomotor activity (locomotion) (locomotor activity) | withdrawal, lower doses of naltrexone (cocaine addicted mice; naltrexone 1 mg/kg, 0.3 mg/kg and 0.1 mg/kg co-administered with l-THP (3 mg/kg)) | withdrawal symptoms, high dose naltrexone (cocaine addicted mice; naltrexone 30 mg/kg or 15 mg/kg co-administered with l-THP (3 mg/kg)) |
| --- | --- | --- | --- | --- | --- | --- | --- | --- | --- | --- | --- | --- | --- | --- | --- |
| COc1cc2c(cc1OC)[C@@H]1Cc3ccc(OC)c(OC)c3CN1CC2 [l-THP, levo-tetrahydropalmatine] | significant attenuation | does not increase | 393 | 38 | within acceptable margin | 8 ± 9.3 | 10 ± 13 | 23.6 ± 27.1 | 5 ± 3 | 5 ± 2 | 8.5 ± 8.1 | safe and well tolerated | significant effect on locomotion during week 3 and week 4; also recorded: reduced locomotor activity significantly | – | – |
| O=C1CC[C@@]2(O)[C@H]3Cc4ccc(O)c5c4[C@@]2(CCN3CC2CC2)[C@H]1O5 [naltrexone] | did not have significant effect | – | – | – | – | – | – | – | – | – | – | – | did not display significant effect | did not produce withdrawal | withdrawal symptoms occurred |
